Like-named read-outs stand apart in the source and are kept apart here.
Assays:
[1] = system: aortic rings from rabbits; assay: HOCl-induced endothelial dysfunction in aortic rings from rabbits fed supplemented diet; assay type: in vivo, New Zealand White rabbits; conditions: dietary 1% probucol, 0.2% DTBP or 0.02% BP, 4 weeks; for Relaxation to ACh of aortic rings after 400 μM HOCl: FIG. 6A; for Tissue cGMP of aortic rings after 400 μM HOCl and 1 μM ACh: FIG. 6B
Experimental: All other reagents were of the highest quality available. Buffers were routinely filtered, argon-flushed and stored at 4° C. prior to use. Solutions of HOCl were prepared freshly before use by diluting reagent HOCl (Aldrich) into phosphate buffer (250 mM, pH 7.0) and standardizing with ε235 nm˜100 M^−1cm^−1 (hypochlorous acid) and ε290 nm˜300 M^−1cm^−1 (hypochlorite), as described in Journal of Physical Chemistry 1966, 70:3798-3805. Animals: New Zealand White rabbits (2.5-3 kg) were obtained from a commercial farm (Wauchope, NSW Australia) and housed individually for the entire study period. […] Feed and water were provided ad libitum for a period of 4 weeks judged to be sufficient time for circulating drug levels to reach a maximum (data not shown). […] The local ethics committee approved the study. Vascular reactivity: Perfused rabbit aortas were harvested and vascular reactivity studies performed as described in Circulation 2003, 107:2031-2036. Briefly, within 2 h of isolation, ring segments ˜5 mm in length were mounted in a myobath system (World Precision Instruments, Sarasota, Fla.) containing 20 mL of Krebs solution aerated at 37° C. with 5% CO2(g), and the dilatory response of half maximally norepinephrine pre-constricted rings to incremental doses of ACh (10^−9-10^−5 mol/L) determined. Where indicated, reagent HOCl (final concentration 400 μM) was added to the Krebs solution and the rings incubated for 5 min prior to thorough washing, pre-constriction and assessment of vessel relaxation. In some studies rings were incubated with probucol or DTBP for 10 min, washed thoroughly and then exposed to HOCl prior to assessing endothelium-dependent relaxation. A maximum of three consecutive sequences of constriction/relaxation were performed for each ring. Preparation of Aortic Homogenates: Aortic Rings Used in the Vascular Function Studies were removed and immediately cut into small pieces, frozen in liquid nitrogen, and then pulverized and homogenized as described. An aliquot (50 μL) of homogenate was removed for protein determination (BCA assay, Sigma) and the remainder extracted into methanol/hexane (5:1, v/v), the resulting hexane fraction dried and the residue suspended in isopropanol for analysis of probucol and its oxidation products. For cGMP determinations, aortic segments were treated with vehicle (control) or HOCl (400 μM) before addition of 1 μM ACh in the presence of 200 μM 3-isobutyl-1-methylxanthine and measurement of cGMP in the homogenate using a kit (Cayman Chemical, Ann Arbor, Mich.). Probucol oxidation studies: Probucol is a highly lipophilic compound (partition coefficient between octanol and water=[…]) that readily distributes into lipoproteins. To mimic the biological situation, oxidation reactions were therefore performed with probucol (or DTBP) dissolved in hexane (2 mL) to which aliquots of HOCl were added to give the final concentrations indicated. The heterogeneous mixtures were shaken vigorously at 37° C. for 60 min, then placed on ice after adding 1 mL water, the hexane phase removed, dried under vacuum and resuspended in isopropanol (200 μL) for HPLC analyses (see below). The aqueous phase was analyzed for the content of sulfate anion (SO4^2−) by ion exchange chromatography (see below). Analytical analyses: Probucol, DTBP, BP and DPQ were analyzed by gradient reversed-phase HPLC and quantified by peak area comparison with authentic standards. Under the conditions used, BP, DTBP, probucol and DPQ eluted at 12.5, 19.2, 20.8 and 28.4 min, respectively. Other oxidation products resolved by this HPLC system were also quantified by peak area comparison, using analytically pure samples obtained from semi-preparative (LC-18, 20 mm×25 cm, 5 μm) fractionation of the reaction mixture. Isolated samples were dried under vacuum, re-dissolved to a known concentration and assessed for purity by analytical HPLC (LC-18, 4.6 mm×25 cm, 5 μm) in combination with mass spectrometry (see below). […]

apoE−/− mice = assay: Atherosclerosis in apoE−/− mice: probucol versus DTBP versus BP, 5 months; assay type: in vivo; conditions: for Atherosclerosis (lesion size) at the arch and descending aorta: 1% probucol, 0.02% BP; for Macrophages lesion area (Mac-3+): FIG. 12a, f; for Plasma cholesterol: FIG. 12c; for Proliferating cells (PCNA+): FIG. 12g; for Aortic content of neutral lipids (cholesterylesters and triglycerides): FIG. 12d
From the text: ApoE−/− mouse model. Four groups of male apoE−/− mice (8-10 weeks, Animal Resources Centre, Perth, Australia) were fed a high fat diet based on Harlan Teklad diet TD88137±1% (wt/wt) probucol (96% purity, a gift from AstraZeneca, Sweden), 0.02% DTBP, or 0.02% BP (Polysciences, Warrington, Pa.) for 5 months. Tissue harvesting and analyses were done as described in Examples 1 and 3, using 15 and 10 mice of each group for biochemical and histological analyses, respectively. Histology and immunohistochemistry. Aortic lesion assessment was carried out at four sites (sinus, arch, thoracic and abdominal aorta) as described in Example 1. Immediately adjacent sections were employed for immunohistochemistry, using Mac-3 (macrophages, dilution 1:200, DAKO), PCNA (cell proliferation, dilution 1:500, DAKO) and anti-rat HO-1 monoclonal antibody (dilution 1:50, Santa Cruz) with avidin-biotin-horseradish peroxidase for signal detection (Vectorstain Elite ABC Kit, Vector Laboratories). Apoptosis was assessed using the TUNEL assay kit (Roche) according to the manufacture's instructions. Digital images were taken for quantitative morphometric analysis. Mac-3^+ areas were determined using Adobe Photoshop V6.0 by tracing. Total cell profiles, TUNEL^+ and PCNA^+ cells were counted manually at high magnification (40× objective). A single operator using coded samples performed all analyses blinded. Heme oxygenase. Heme oxygenase activity was determined in microsomes prepared from homogenized aortic tissue and assessed by HPLC as described in Circulation 2004, 110: 1855-1860. Statistics. All data are expressed as mean±SEM. One-way ANOVA and the student-Newman-Keul's test were used to evaluate differences between groups, with P<0.05 considered significant.

[2] = parameters: species or system rabbits; conditions: rabbit, in vivo
Experimental: Rabbit aortic balloon-injury model. Four groups of male New Zealand White rabbits (1.8-2.2 kg, Merunga Farm, Coffs Harbour, Australia), matched for body weight and baseline plasma cholesterol, were fed 100 g per day of normal chow±1% probucol, 0.02% DTBP, or 0.02% BP (wt/wt) for up to nine weeks. Aortic balloon-injury (ABI) was carried out at the end of week three, resulting in complete endothelial denudation. Harvesting of aortas was done after a further 6 weeks (n=6 per group). Aortic lesion assessment was carried out at the 3rd pair of lumber arteries in NZW rabbits as described in Circulation 2003, 107:2031-2036. Statistics. Data are expressed as mean±SEM. One-way ANOVA and the student-Newman-Keul's test were used to evaluate differences between groups, with P<0.05 considered significant.
To control for probucol's cholesterol-lowering effect, the animals were matched for baseline plasma cholesterol, and fed them a limited amount (100 g/day) of standard diet±the respective drug.

SMILES	Relaxation to ACh of aortic rings after 400 μM HOCl [1]	Tissue cGMP of aortic rings after 400 μM HOCl and 1 μM ACh [1]	Atherosclerosis (lesion size) at the arch and descending aorta (apoE−/− mice; 0.02% DTBP, 5 months, FIG. 12b)	Macrophages lesion area (Mac-3+) (apoE−/− mice; apoE−/− mice, 5 months)	Plasma cholesterol (apoE−/− mice; apoE−/− mice, 5 months)	Proliferating cells (PCNA+) (apoE−/− mice; apoE−/− mice, 5 months)	Total drug in the vessel wall [2]	Lesion size at the aortic root (apoE−/− mice; 0.02% DTBP, 5 months, FIG. 12b)	HDL-cholesterol (apoE−/− mice; apoE−/− mice, 0.02% DTBP, 5 months, FIG. 12h)	Aortic content of neutral lipids (cholesterylesters and triglycerides) (apoE−/− mice; apoE−/− mice, 5 months)	Anti-atherosclerotic activity relative to probucol (apoE−/− mice; judged from aortic drug concentration and lesion inhibition)	Total drug in the vessel wall ([2]; male, New Zealand White, 9 weeks)	Bioavailability relative to probucol [2]
CC(C)(C)c1cc(-c2cc(C(C)(C)C)c(O)c(C(C)(C)C)c2)cc(C(C)(C)C)c1O [BP, 3,3′,5,5′-tetra-tert-butyl-4,4′-bisphenol]	responded to HOCl indistinguishably from control	ineffective	failed	failed to affect	failed	failed to affect	614±258 pmol total drug per mg protein						
CC(C)(C)c1cc(SSc2cc(C(C)(C)C)c(O)c(C(C)(C)C)c2)cc(C(C)(C)C)c1O [DTBP, 4,4′-dithiobis(2,6-di-tert-butyl-phenol)]	preserved the vascular function of isolated rings to an extent comparable to that seen with probucol	increase in tissue cGMP	significantly inhibited	significant decrease	did not increase medium lesion size at the aortic root (FIG. 12b) or affect plasma cholesterol	significant decrease		did not increase	does not lower HDL-cholesterol	decreased	greater anti-atherosclerotic activity than probucol	235±64 pmol total drug per mg protein	greater bioavailability than probucol
CC(C)(Sc1cc(C(C)(C)C)c(O)c(C(C)(C)C)c1)Sc1cc(C(C)(C)C)c(O)c(C(C)(C)C)c1 [probucol]	retained responsiveness to ACh	greater content of cGMP	significantly inhibited	significant decrease		significant decrease	663±114 pmol total drug per mg protein			decreased			
